Legend:
[1] = Detergency against keratotic plugs after washing with water (collapse state); design: species or system human; conditions: keratotic plugs kept in contact with water for 1 minute after contact with sample
Description: (§1) The penetration was relatively evaluated by 11 criteria from the state 1 “the sample hardly penetrated into the keratotic plug” to the state 11 “the sample penetrated to the center of the keratotic plug”. The collapsibility by the detergency against keratotic plugs was relatively evaluated by 11 criteria from the state 1 “almost no change is observed in the external appearance of the keratotic plug” to the state 11 “peeling or separation is observed in the area from the surface layer to the central portion of the keratotic plug (the initial appearance of the keratotic plug is not retained)”.
After one minute from the contact of the keratotic plugs with the sample, KimWipes (registered trademark) was brought into contact with an edge of the cover glass to remove the sample under the cover glass. Subsequently, 0.05 mL of water was dropwise added to an edge of the cover glass. The sample dropwise added with water was recorded with the digital microscope, and the collapse state of the keratotic plugs was evaluated after one minute from the contact of the keratotic plugs with water according to the criteria for evaluating collapsibility of the keratotic plugs. The results of the evaluation are shown in the column “Detergency against keratotic plugs (after washing with water)” in Table. The measurements were performed at 25° C.

[2] = Detergency against keratotic plugs: penetration of the sample into keratotic plugs; design: species or system human; conditions: keratotic plugs kept in contact with sample for 1 minute; results of Table 1
Protocol: (§2) Keratotic plugs in the nasal region were removed with “Biore Nose Pack (manufactured by Kao Corporation)”, the resulting keratotic plugs on the pack were gently taken out with tweezers.
(§3) The resulting keratotic plugs were placed on a slide glass and were covered with a cover glass, and 0.05 mL of a sample was dropwise added to an edge of the cover glass. Consequently, the sample entered into the gap between the slide glass and the cover glass by capillary phenomenon and was brought into contact with the keratotic plugs. The contact of the keratotic plugs with the sample was recorded with a digital microscope (VHX-5000, manufactured by Keyence Corporation, magnification: ×150), and the penetration of the sample into the keratotic plugs and the collapse state of the keratotic plugs were evaluated after one minute from the contact of the keratotic plugs with the sample. The results of each evaluation are shown in the columns “Detergency against keratotic plugs (penetration)” and “Detergency against keratotic plugs (during cleansing)” in Tables. The measurements were performed at 25° C.
as §1

[3] = cited from earlier work
[4] = Detergency against keratotic plugs during cleansing (collapse state); design: species or system human; conditions: keratotic plugs kept in contact with sample for 1 minute; results of Table 1
Protocol: as §2, §3, §1

[5] = test system: insoluble protein (zein protein); assay: Effect of suppressing protein aggregation (precipitation of insoluble protein); conditions: results of Table 1
Protocol: Thirty milliliters of a sample and 0.06 g of an insoluble protein (zein protein) were placed in a 35-mL standard glass bottle, and the concentration of the insoluble protein was adjusted to 0.2 mass % (test sample). Separately, a standard sample was prepared by using water instead of the sample and adjusting the concentration of the insoluble protein to 0.2 mass %. Subsequently, the standard glass bottles were sufficiently shaken and stirred up and down (shake width: 15 cm, 20 times at a shake rate of 5 times per 3 seconds) in a thermostatic chamber of 25° C. and were left to stand for 3 minutes. The precipitation state of the insoluble protein was then visually verified, and the ratio of the amount of the precipitated standard sample to the amount of the precipitated test sample (the height of the precipitate in each standard glass bottle was measured as the precipitation amount), (precipitation amount of standard sample)/(precipitation amount of test sample), was calculated. A higher ratio indicates a higher effect of suppressing protein aggregation.

Compound	collapse of keratotic plugs on contact with water after the sample (in words) [1]	penetration into keratotic plugs (in words) [2]	solubility in water (in words) [3]	collapse of keratotic plugs on contact with sample (in words) [4]	action on proteins (in words) [5]
CC(C)(N)CO [AMP, 2-amino-2-methyl-1-propanol]	accelerating the collapse	penetrated into keratotic plugs	readily dissolved in water		
CC(N)(CO)CO [AMPD, 2-amino-2-methyl-1,3-propanediol]	accelerating the collapse	penetrated into keratotic plugs			
NC(CO)(CO)CO [Tris, 2-amino-2-hydroxymethyl-1,3-propanediol]	accelerating the collapse	penetrated into keratotic plugs	readily dissolved in water		
O=P([O-])([O-])O.[Na+].[Na+] [disodium hydrogen phosphate]	did not progress	hardly penetrated into keratotic plugs		did not progress	
O=C([O-])O.[Na+] [sodium hydrogen carbonate]	did not progress	hardly penetrated into keratotic plugs		did not progress	
O=P([O-])([O-])[O-].[Na+].[Na+].[Na+] [trisodium phosphate]	did not progress	hardly penetrated into keratotic plugs		did not progress	
sodium polyoxyethylene (2) lauryl ether sulfate [POE (2) sodium lauryl sulfate]		hardly penetrated into the keratotic plugs		did not progress	dissolve the proteins

From US11406576B2, “Method for removing keratotic plugs” (KAO CORPORATION, priority 2017, dated 2022)
